{
  "source": "paper PMC10449633",
  "about": "(Nature Chemical Biology, 2023)",
  "key": {"Sec61α Q127A": {"biological_target": "Sec61α Q127A (Canis lupus familiaris, UniProt P38377, Q127A)", "sequence (P60059 whole entry)": "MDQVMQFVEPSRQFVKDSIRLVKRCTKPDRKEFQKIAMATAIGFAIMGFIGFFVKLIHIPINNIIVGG", "sequence (P60468 whole entry, further chain)": "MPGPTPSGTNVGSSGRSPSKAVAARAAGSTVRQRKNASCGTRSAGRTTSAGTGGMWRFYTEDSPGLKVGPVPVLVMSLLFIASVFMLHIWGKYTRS", "sequence (P38377 whole entry Q127A)": "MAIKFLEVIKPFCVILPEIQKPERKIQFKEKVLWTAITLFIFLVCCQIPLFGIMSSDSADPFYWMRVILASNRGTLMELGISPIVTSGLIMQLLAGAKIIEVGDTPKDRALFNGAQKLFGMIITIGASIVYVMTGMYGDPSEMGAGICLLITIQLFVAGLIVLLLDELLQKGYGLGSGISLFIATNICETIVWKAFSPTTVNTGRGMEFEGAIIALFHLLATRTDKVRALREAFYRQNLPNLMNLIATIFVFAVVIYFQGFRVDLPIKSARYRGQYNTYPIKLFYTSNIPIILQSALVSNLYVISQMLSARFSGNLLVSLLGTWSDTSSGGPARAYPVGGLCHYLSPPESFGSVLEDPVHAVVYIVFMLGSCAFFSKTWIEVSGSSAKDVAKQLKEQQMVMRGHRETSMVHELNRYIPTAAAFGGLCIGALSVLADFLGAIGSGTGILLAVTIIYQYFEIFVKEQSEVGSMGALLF", "assay": "Luciferase reporter assay in HEK293 cells expressing Sec61α Q127A", "parameters": "remaining activity: dose or concentration left out as unconfirmed", "details": "HEK293, 24 h, read-out: luciferase reporter activity (% of no-drug control), Q127A", "description": "(§1) Data are mean values ± s.d. from n = 2 independent experiments.\n(§2) HEK293T cells (0.3 × 10^6) were seeded per well of a six-well plate and incubated at 37 °C in 5% CO2 for 24 h to adhere. Each of the two wells was transfected with 1 µg of plasmid encoding a luciferase with the signal peptide of either VCAM1 or pPL using PEI in a 5:1 ratio, after which cells were returned to the incubator for a further 24 h. Transfected cells were then resuspended following trypsinization, cell count estimated using a TC20 Automated Cell Counter (BioRad) and diluted to seed a 96-well flat-bottom plate with 1.6 × 10^4 cells per well. […] Cells were then incubated for a further 24 h, after which the luciferase-containing media were transferred to a clean 96-well plate and stored at −20 °C. Luciferase activity of the media was estimated using a Gaussia-GLOW Juice Luciferase Assay kit from PJK Biotech GmbH as per the manufacturer’s instructions. Luminescence was measured using an EnSpire Multimode plate reader (PerkinElmer). Background luminescence from media placed in a well with neither cells nor drug was subtracted from all values, and measurements were calculated as a percentage of luminescence intensity of a well expressing the appropriate luciferase construct in the absence of any drug. Curves were fitted, and IC50 values were calculated using GraphPad Prism 8.\nWT canine Sec61 was cloned into pcDNA5/FRT/TO (Thermo Fisher Scientific), and point mutations were generated using PCR. All mutants were sequence verified. HEK293 Flp-In T-REx cells (Thermo Fisher Scientific, R78007) were cultured in Dulbecco’s modified Eagle’s medium (Gibco) supplemented with 10% FBS (Gibco) at 37 °C in a humidified 5% CO2 atmosphere. Approximately 0.3 µg of pOG44 and 1 µg of targeting construct plasmids were mixed in 250 µl of OptiMEM (Thermo Fisher Scientific, 51985-026). A total of 3 µl (3 µg) Lipofectamine3000 transfection reagent was then added to the DNA mix and incubated at room temperature for 20 min, and the whole mixture was added to the cells. Cells were exposed to 100 µg ml^−^1 hygromycin B (Invitrogen) and 10 µg ml^−^1 blasticidin for 3–4 weeks until the appearance of resistant colonies. Colonies were expanded into T75 flasks and induced with doxycycline (Sigma-Aldrich, D9891) at a concentration of 1–5 µg ml^−^1 for 48 h. Cells were collected, and total RNA was extracted followed by cDNA amplification and sequencing of Sec61 with gene-specific PCR primers to confirm. Cells were then used for the luciferase reporter assays as above.\n(§3) Data are mean values ± SD and are representative of n = 2 independent experiments."}, "SARS-CoV-2": {"tested_on": "SARS-CoV-2", "details": "Vero cells"}, "[1]": {"tested_on": "Sec61 R66I TNFa(FL) reporter cells", "assay": "CTG (CellTiter-Glo) viability of TNFa(FL) reporter cells expressing Sec61 R66I", "format": "cell-based", "details": "replicate columns", "excerpt": "Supplement 41589_2023_1326_MOESM7_ESM.xlsx, sheet \"Panel B\" | column: Sec61 R66I - CTG (TNFa(FL))"}, "Sec61α N300M": {"biological_target": "Sec61α N300M (Canis lupus familiaris, UniProt P38377, N300M)", "sequence (P38377 whole entry N300M)": "as the sequence (P38377 whole entry Q127A) above, with A127Q, N300M counted along it", "sequence (P60468 whole entry, further chain)": "as the sequence (P60468 whole entry, further chain) above", "sequence (P60059 whole entry, further chain)": "as the sequence (P60059 whole entry) above", "assay": "Luciferase reporter assay in HEK293 cells expressing Sec61α N300M", "details": "HEK293, 24 h, read-out: luciferase reporter activity (% of no-drug control), N300M", "description": "as §1, §2\nHEK293 Flp-In T-REx cells (Thermo Fisher Scientific, R78007) were cultured in Dulbecco’s modified Eagle’s medium (Gibco) supplemented with 10% FBS (Gibco) at 37 °C in a humidified 5% CO2 atmosphere. Approximately 0.3 µg of pOG44 and 1 µg of targeting construct plasmids were mixed in 250 µl of OptiMEM (Thermo Fisher Scientific, 51985-026). A total of 3 µl (3 µg) Lipofectamine3000 transfection reagent was then added to the DNA mix and incubated at room temperature for 20 min, and the whole mixture was added to the cells. Cells were exposed to 100 µg ml^−^1 hygromycin B (Invitrogen) and 10 µg ml^−^1 blasticidin for 3–4 weeks until the appearance of resistant colonies. Colonies were expanded into T75 flasks and induced with doxycycline (Sigma-Aldrich, D9891) at a concentration of 1–5 µg ml^−^1 for 48 h. Cells were collected, and total RNA was extracted followed by cDNA amplification and sequencing of Sec61 with gene-specific PCR primers to confirm. Cells were then used for the luciferase reporter assays as above.\nas §3"}, "R66I Sec61α": {"biological_target": "T1, R66I Sec61α (Canis lupus familiaris, UniProt P38377, R66I)", "T1 construct": "expressed in transfected cells", "T1 sequence (P60468 whole entry, the tested form may be a part)": "as the sequence (P60468 whole entry, further chain) above", "T1 sequence (P38377 whole entry R66I, the tested form may be a part)": "as the sequence (P38377 whole entry Q127A) above, with R66I, A127Q counted along it", "T1 sequence (P60059 whole entry, further chain, the tested form may be a part)": "as the sequence (P60059 whole entry) above", "assay": "GLuc secretion reporter fused to full-length IL-2 or TNF, cells stably expressing R66I Sec61α", "format": "cell-based, canine", "details": "for Sec61 R66I - Hu IL2(FL) / Sec61 R66I - Hu PD1(ss) / Sec61 R66I - Hu TNFa(FL): replicate columns"}, "[2]": {"tested_on": "T-cell acute lymphoblastic leukemia cells", "details": "in vitro; cited from earlier work"}},
  "note": "“And” between values parts separate entries of the source, which are not always exact repeats. Equal values may be shown once. Read-outs that look alike come from different tables or passages of the source. Numbered stars: 1 amine (or outer) side, 2 acyl side, 3 side chain; on linkers, the order of the positions; unused ones are H or OH. Square brackets hold non-standard residues; d marks the D form. Peptide text beside a SMILES is read from it. ξ: configuration not given here. X1 = CN(C(Cc1cn(Cc2ccc(Br)cc2)c2ccccc12)C(=O)[*:2])[*:1]; ξAla(CF3) = NC(CC(F)(F)F)C(=O)O; X2 = N#CCCC(O[*:1])C(=O)[*:2]; NMeL = CN[CH](CC(C)C)C(=O)O; NMeA = CN[CH](C)C(=O)O",
  "data": [
    {"smiles": "CC(C)CC1NC(=O)C(Cc2cn(Cc3ccc(Br)cc3)c3ccccc23)N(C)C(=O)C(CC(F)(F)F)NC(=O)C(CC(C)C)N(C)C(=O)C(CC(F)(F)F)NC(=O)C(CCC#N)OC(=O)C(C)N(C)C1=O", "note": "(stereo not drawn) [KZR-8445] (cyclo([X1]L[NMeA][X2][ξAla(CF3)][NMeL][ξAla(CF3)]); configuration not given here)", "values": [
      {"measurement": "remaining activity at 0.00018303 µM", "setting": "Sec61α Q127A; Drug nM (log10) 0.18303", "result": 76.3, "unit": "%"},
      {"measurement": "remaining activity at 0.000660151 µM", "setting": "Sec61α Q127A; Drug nM (log10) 0.660151", "result": 76.5, "unit": "%"},
      {"measurement": "remaining activity at 0.00113727 µM", "setting": "Sec61α Q127A; Drug nM (log10) 1.13727", "result": 51.2, "unit": "%"},
      {"measurement": "remaining activity", "setting": "Sec61α Q127A; Drug nM (log10) 1.61439", "result": 32.3, "unit": "%"},
      {"measurement": "remaining activity", "setting": "Sec61α Q127A; Drug nM (log10) 2.09151", "result": 14.7, "unit": "%"},
      {"measurement": "remaining activity", "setting": "Sec61α Q127A; Drug nM (log10) 2.56864", "result": 6.52, "unit": "%"},
      {"measurement": "remaining activity", "setting": "Sec61α Q127A; Drug nM (log10) 3.04576", "result": 3.21, "unit": "%"},
      {"measurement": "remaining activity", "setting": "Sec61α Q127A; Drug nM (log10) 3.52288", "result": 2.56, "unit": "%"},
      {"measurement": "remaining activity at 0.004 µM", "setting": "Sec61α Q127A; Drug nM (log10) 4", "result": 2.87, "unit": "%"},
      {"measurement": "remaining activity at 0.000508 µM", "setting": "Sec61α Q127A; Drug nM (log10) -0.29409", "result": 88.9, "unit": "%"},
      {"measurement": "virus-induced cytotoxicity", "setting": "SARS-CoV-2", "result": "blocked"},
      {"measurement": "Sec61 R66I - CTG (TNFa(FL))", "setting": "[1]; 0.32 nM", "result": "108 and 113 and 120"},
      {"measurement": "Sec61 R66I - CTG (TNFa(FL))", "setting": "[1]; 1.6 nM", "result": "101 and 108 and 112"},
      {"measurement": "Sec61 R66I - CTG (TNFa(FL))", "setting": "[1]; 8 nM", "result": "103 and 106 and 110"},
      {"measurement": "Sec61 R66I - CTG (TNFa(FL))", "setting": "[1]; 40 nM", "result": "99 and 111 and 119"},
      {"measurement": "Sec61 R66I - CTG (TNFa(FL))", "setting": "[1]; 200 nM", "result": "106 and 110 and 120"},
      {"measurement": "Sec61 R66I - CTG (TNFa(FL))", "setting": "[1]; 1000 nM", "result": "112 (2×) and 113"},
      {"measurement": "Sec61 R66I - CTG (TNFa(FL))", "setting": "[1]; 5000 nM", "result": "102 and 107 and 104"},
      {"measurement": "Sec61 R66I - CTG (TNFa(FL))", "setting": "[1]; 25000 nM", "result": "101 and 94 and 102"},
      {"measurement": "remaining activity at 0.00018303 µM", "setting": "Sec61α N300M; Drug nM (log10) 0.18303", "result": 96.7, "unit": "%"},
      {"measurement": "remaining activity at 0.000660151 µM", "setting": "Sec61α N300M; Drug nM (log10) 0.660151", "result": 105, "unit": "%"},
      {"measurement": "remaining activity", "setting": "Sec61α N300M; Drug nM (log10) 1.61439", "result": 76.6, "unit": "%"},
      {"measurement": "remaining activity", "setting": "Sec61α N300M; Drug nM (log10) 2.09151", "result": 74, "unit": "%"},
      {"measurement": "remaining activity", "setting": "Sec61α N300M; Drug nM (log10) 3.04576", "result": 68, "unit": "%"},
      {"measurement": "remaining activity at 0.000508 µM", "setting": "Sec61α N300M; Drug nM (log10) -0.29409", "result": 92.5, "unit": "%"},
      {"measurement": "Sec61 R66I - Hu IL2(FL)", "setting": "R66I Sec61α; 0.32 nM", "result": "116 (2×) and 120"},
      {"measurement": "Sec61 R66I - Hu PD1(ss)", "setting": "R66I Sec61α; 0.32 nM", "result": "105 and 121 and 112"},
      {"measurement": "Sec61 R66I - Hu TNFa(FL)", "setting": "R66I Sec61α; 0.32 nM", "result": "121 and 138 and 116"},
      {"measurement": "Sec61 R66I - Hu IL2(FL)", "setting": "R66I Sec61α; 1.6 nM", "result": "105 and 113 and 110"},
      {"measurement": "Sec61 R66I - Hu PD1(ss)", "setting": "R66I Sec61α; 1.6 nM", "result": "120 and 103 and 107"},
      {"measurement": "Sec61 R66I - Hu TNFa(FL)", "setting": "R66I Sec61α; 1.6 nM", "result": "85 and 126 and 152"},
      {"measurement": "Sec61 R66I - Hu IL2(FL)", "setting": "R66I Sec61α; 8 nM", "result": "113 and 98 and 120"},
      {"measurement": "Sec61 R66I - Hu PD1(ss)", "setting": "R66I Sec61α; 8 nM", "result": "115 and 104 and 125"},
      {"measurement": "Sec61 R66I - Hu TNFa(FL)", "setting": "R66I Sec61α; 8 nM", "result": "118 and 113 and 150"},
      {"measurement": "Sec61 R66I - Hu IL2(FL)", "setting": "R66I Sec61α; 40 nM", "result": "101 and 106 and 117"},
      {"measurement": "Sec61 R66I - Hu PD1(ss)", "setting": "R66I Sec61α; 40 nM", "result": "115 and 120 and 121"},
      {"measurement": "Sec61 R66I - Hu TNFa(FL)", "setting": "R66I Sec61α; 40 nM", "result": "103 and 123 and 141"},
      {"measurement": "Sec61 R66I - Hu IL2(FL)", "setting": "R66I Sec61α; 200 nM", "result": "106 and 96 and 94"},
      {"measurement": "Sec61 R66I - Hu PD1(ss)", "setting": "R66I Sec61α; 200 nM", "result": "88 and 107 and 86"},
      {"measurement": "Sec61 R66I - Hu TNFa(FL)", "setting": "R66I Sec61α; 200 nM", "result": "88 and 105 and 111"},
      {"measurement": "Sec61 R66I - Hu IL2(FL)", "setting": "R66I Sec61α; 1000 nM", "result": "79 and 90 and 87"},
      {"measurement": "Sec61 R66I - Hu PD1(ss)", "setting": "R66I Sec61α; 1000 nM", "result": "68 and 64 and 75"},
      {"measurement": "Sec61 R66I - Hu TNFa(FL)", "setting": "R66I Sec61α; 1000 nM", "result": "82 (2×) and 71"},
      {"measurement": "Sec61 R66I - Hu IL2(FL)", "setting": "R66I Sec61α; 5000 nM", "result": "83 and 76 and 88"},
      {"measurement": "Sec61 R66I - Hu PD1(ss)", "setting": "R66I Sec61α; 5000 nM", "result": "52 and 49 (2×)"},
      {"measurement": "Sec61 R66I - Hu TNFa(FL)", "setting": "R66I Sec61α; 5000 nM", "result": "73 and 85 and 77"},
      {"measurement": "Sec61 R66I - Hu IL2(FL)", "setting": "R66I Sec61α; 25000 nM", "result": "89 and 88 and 72"},
      {"measurement": "Sec61 R66I - Hu PD1(ss)", "setting": "R66I Sec61α; 25000 nM", "result": "48 (2×) and 40"},
      {"measurement": "Sec61 R66I - Hu TNFa(FL)", "setting": "R66I Sec61α; 25000 nM", "result": "70 and 78 and 77"},
      {"measurement": "block of secretion of both GLuc reporter constructs in R66I cells", "setting": "R66I Sec61α; IL-2 and TNFα GLuc, versus WT Sec61α", "result": "reduced"},
      {"measurement": "dexamethasone resistance in T-ALL cells", "setting": "[2]", "result": "overcome dexamethasone resistance"}
    ]}
  ]
}
